Columns and labels:
[1] = system: mouse organoids from normal pancreata (mN); experiment: Organoid cytotoxicity assay; format: cell-based; conditions: 72 h, read-out: EC50 mN
[2] = system: KPC mice (pancreatic ductal adenocarcinoma); experiment: Survival study in tumor-bearing KPC mice; format: in vivo, mouse
[3] = system: human organoids from normal pancreata (hN); experiment: Organoid cytotoxicity assay; format: cell-based; conditions: 72 h, read-out: EC50 hN
[4] = system: hT3 organoid orthotopic xenografts in NSG mice; experiment: Orthotopic xenografts of human tumor organoids, 7-day trial; format: in vivo, mouse
[5] = system: mouse tumor organoids (mT); experiment: Organoid cytotoxicity assay; format: cell-based; conditions: 72 h, read-out: EC50 mT
[6] = Intratumoral gemcitabine pharmacokinetic analysis; format: in vivo, mouse; conditions: KPC tumors, with versus without MEKi and AKTi

Structure (SMILES)	EC50 [1]	survival (in words) [2]	tumor growth (in words) [2]	EC50 [3]	cell death by CC3 IHC (in words) [4]	cell proliferation by Ki67 IHC (in words) [4]	EC50 [5]	intratumoral concentration of Gem and its metabolites [6]
NC1(c2ccc(-c3nc4ccn5c(=O)[nH]nc5c4cc3-c3ccccc3)cc2)CCC1 [AKTi, MK2206]	140 nM	without extension in survival	reduced tumor growth	70000 nM	–	–	–	–
CCOc1cc2ncc(C#N)c(Nc3ccc(OCc4ccccn4)c(Cl)c3)c2cc1NC(=O)/C=C/CN(C)C [ERBBi, neratinib]	–	–	–	–	no effect on cell death	reduced cell proliferation	1200 nM	–
Nc1ccn([C@@H]2O[C@H](CO)[C@@H](O)C2(F)F)c(=O)n1 [Gem, gemcitabine]	–	did not significantly impact	did not significantly impact	–	–	–	–	no differences in intratumoral concentration
Cn1cnc2c(F)c(Nc3ccc(Br)cc3Cl)c(C(=O)NOCCO)cc21 [MEKi, selumetinib]	2000 nM	did not significantly impact	did not significantly impact	12000 nM	significantly increased	did not have any significant impact	–	–
